The record followed here is patent US10052323B2, “Pharmaceutical compositions of 7-(6-(2-hydroxypropan-2-yl)pyridin-3-yl)-1-(trans)-4-methoxycyclohexyl)-3,4-dihydropyrazino [2,3-b]pyrazin-2(1H)-one, a solid form thereof and methods of their use” (Signal Pharmaceuticals, LLC, priority 2013, dated 2018).

Read-outs that look alike come from different tables or passages of the source.

The nature of data set [1]: Phase 1 food effect study (Part 2), single 20-mg oral dose of Compound A tablet, fed vs fasted. Type of data set: in vivo, human. The method, then:
The primary objectives of this study are: to characterize the biotransformation and excretion of Compound A following a single 20 mg oral dose of Compound A capsule containing a microtracer of [^14C]-Compound A solution in healthy male subjects (Part 1) and to evaluate the effect of a high-fat meal on the pharmacokinetics (PK) of Compound A following a single oral 20-mg dose of Compound A tablet (Part 2).
Part 2 design: Part 2 will be a 2-period crossover study; in Period 1, subjects (n=12) will be randomized to receive either an oral 20 mg dose of Compound A tablet (Treatment B) under fed (n=6) or fasted (n=6) conditions. In Period 2, subjects will receive Treatment B under converse conditions based on treatment assignment in Period 1. After screening, subjects (n=12) eligible for participation in the study will return to the study center on Day −1 for baseline assessments. Subjects who continue to be qualified for participation in the study will be randomized and enrolled in the study on the morning of Day 1. Subjects (n=6) will be enrolled and randomized to receive Treatment B under fed or fasted conditions on the morning of Day 1 after fasting for at least 8 hours. Fed subjects will be served a standard high fat meal breakfast, or its equivalent, that must be consumed within 30 minutes from serving. Dosing must occur 30 minutes (±5 minutes) after serving a subject breakfast. All subjects (fed and fasted) will fast (not to consume any food) until 4 hours post dose. Water will be allowed during the fasting period. Subjects will be domiciled at the study center from Day −1 until the morning of Day 5 of each period. Subjects will be discharged from the study center on the morning of Day 5 upon satisfactory safety review and completion of study-related procedures. Safety and tolerability data will be monitored and collected following each dosing period. Periods 1 and 2 will be separated by a washout period of at least 7 days (no more than 10 days) from prior dose to the next dose. In certain instances, a longer washout may be acceptable if previously agreed to.
Serial blood samples (10 mL) will be collected at predose (0 hour) and at 0.5, 1, 2, 3, 6, 12, 24, 48, 72 and 96 hours post dose for the determination of plasma concentrations of Compound A and the O-desmethyl metabolite of Compound A. Safety will be monitored throughout the study; safety evaluations will include AE reporting, physical examinations, vital sign measurements, ECG, and clinical laboratory safety tests. Concomitant medications will be assessed and recorded throughout the study as well. In addition, during the subjects' stay-in-the clinic (i.e., confinement period), fasting plasma glucose levels will be monitored as part of the clinical laboratory safety tests. For Parts 1 and 2, all subjects will return to the clinic within 7 to 10 days after the last dose for follow up safety assessments. In the event that a subject discontinues prematurely from the study, every reasonable effort should be made (and documented) to ensure that all procedures and evaluations scheduled for the follow-up visit are performed at the time of discontinuation or a follow-up visit should be scheduled within 7 to 10 days from the discontinuation day.
Part 2 dosing: In Part 2, subjects will fast overnight for at least 8 hours prior to Compound A administration. On the morning of Day 1, each subject will receive a 20-mg tablet of Compound A orally. Subjects randomized to receive Compound A under fed conditions will be a served a standard high fat meal (breakfast).
The standard high fat meal or its equivalent must be consumed within 30 minutes of serving. Dosing must occur 30 minutes (±5 minutes) after serving the meal. The tablet will be administered with approximately 240 mL of non-carbonated, room temperature water. After dosing, subjects will continue to fast until 4 hours after dosing.

Data set [2] can be described thus: Susceptibility of Compound A to hydrolysis. Type of data set: physicochemical.
The nature of data set [3]: Phase 1 crossover pharmacokinetics after a single oral 20 mg dose of tablet and capsule formulations. Type of data set: in vivo, human. The protocol:
Certain formulations provided herein were evaluated in a Phase 1, open-label, randomized, crossover study.
On Day 1 of Period 1, following an overnight fast of at least 8 hours, subjects were randomized to one of the following 3 sequences to receive Treatment A, B or C (Table 35).
In Treatment A, one 20-mg reference Compound A API-in-capsule was administered orally after at least 8 hour fast with 240 mL of non-carbonated, room temperature water. In Treatment B, one 20-mg tablet of Compound A (Tablet Formulation XIII) was administered under fasted conditions. In Treatment C, four 5-mg tablets of Compound A (Tablet Formulation XIV) were administered under fasted conditions. The 20-mg tablet and four 5-mg tablets were administered orally after at least 8 hour fast with 240 mL of non-carbonated, room temperature water.
For each period, serial blood samples were collected before dosing (zero hour) and at 0.5, 1, 1.5, 2, 2.5, 3, 4, 6, 8, 12, 24, 48, 72, and 96 hours after dosing. Plasma concentrations of Compound A were determined for determining PK parameters, such as AUC0-t, AUC0-∞, Cmax, Tmax, t1/2, CL/F, and Vz/F for Compound A. Plasma PK parameters were calculated using non compartmental methods. Analyses of variance (ANOVA) were performed on the natural log-transformed AUC0-t, AUC0-∞, and Cmax for Compound A. The geometric mean ratios (test/reference) and their 90% confidence intervals were also calculated. For Tmax, non parametric analysis was used to produce median differences.

Data set [4] is described as follows: Hygroscopicity by moisture adsorption/desorption (DVS). Type of data set: physicochemical. The protocol: Sorption isotherms were obtained using a SMS DVS Intrinsic moisture sorption analyser, controlled by DVS Intrinsic Control software v1.0.0.30. The sample temperature was maintained at 25° C. by the instrument controls. The humidity was controlled by mixing streams of dry and wet nitrogen, with a total flow rate of 200 mL/min. The relative humidity was measured by a calibrated Rotronic probe (dynamic range of 1.0-100% RH), located near the sample. The weight change, (mass relaxation) of the sample as a function of % RH was constantly monitored by the microbalance (accuracy±0.005 mg). Typically 5-20 mg of sample was placed in a tared mesh stainless steel basket under ambient conditions. The sample was loaded and unloaded at 40% RH and 25° C. (typical room conditions). The standard isotherm was performed at 25° C. at 10% RH intervals over a 0-90% RH range. Data analysis was undertaken in Microsoft Excel using DVS Analysis Suite v6.0.0.7.
Hygroscopicity of Form A was determined by moisture adsorption and desorption.

Data set [5] is described as follows: Pharmacokinetics of metabolite after 7.5-60 mg Compound A (protocol of U.S. provisional 61/653,436). Type of data set: in vivo, human. The settings on record: for concentration at 15 day: human, in vivo, read-out: Ctrough. The protocol: In certain embodiments, the pharmacokinetic parameters in connection with the metabolite of Compound A produced via administration of 7.5 mg, 15 mg, 30 mg, 45 mg and 60 mg of Compound A are obtained using the protocol set forth in Section 5.2.1 (paragraphs [00497]-[00520]) of U.S. provisional application No. 61/653,436, filed May 31, 2012, which is incorporated by reference herein in its entirety.
In certain embodiments, the pharmacokinetic parameters set forth herein are mean values obtained from multiple subjects.

Setting [6] is: fed vs fasted, 20 mg Compound A tablet, healthy adult males.
[7] abbreviates: plasma, single 20-mg oral dose of Compound A tablet, Fasted (n = 11).
The mark [8] stands for this setting: plasma, single 20-mg oral dose of Compound A tablet, Fed, high fat meal (n = 11).
The mark [9] stands for this setting: day 1 of administration of about 45 mg of Compound A.
Setting [10] is: day 1 of administration of about 60 mg of Compound A.
Setting [11] is: upon administration of about 45 mg of Compound A.

`CO[C@H]1CC[C@H](N2C(=O)CNc3ncc(-c4ccc(C(C)(C)O)nc4)nc32)CC1` [Compound A, 7-(6-(2-hydroxypropan-2-yl)pyridin-3-yl)-1-((trans)-4-methoxycyclohexyl)-3,4-dihydropyrazino[2,3-b]pyrazin-2(1H)-one]: in data set [1] (setting [6]), the “decrease in Cmax with a high fat meal” value is reported as roughly 17%, the “delay in Tmax with a high fat meal” value turned out to be 2 h and the “increase in overall exposure (AUCinf) with a high fat meal” value is roughly 20%. The “CL/F (L/h), geometric mean (CV %)” value in data set [1] (setting [7]) is 19.9 (38) L/h. Besides, the “CL/F (L/h), geometric mean (CV %)” value in data set [1] (setting [8]) is on record as 16.7 (38) L/h. The susceptibility to hydrolysis entry in data set [2] was “susceptible to hydrolysis”. In addition, in data set [3] (plasma, single 20 mg oral dose of Compound A, fasted healthy adult males, Treatment A = API-in-capsule, B = one 20-mg tablet, C = four 5-mg tablets (analyte Compound A)), the “CL/F (L/h), geometric mean (geometric CV %)” value is listed as 20.3 (23) L/h. Moreover, the “pharmacokinetics of tablet formulations versus API in capsule” value in data set [3] (single dose 20 mg, healthy adult male subjects) was “comparable”.

Consider `CO[C@H]1CC[C@H](N2C(=O)CNc3ncc(-c4ccc(C(C)(C)O)nc4)nc32)CC1` [Form A, 7-(6-(2-hydroxypropan-2-yl)pyridin-3-yl)-1-((trans)-4-methoxycyclohexyl)-3,4-dihydropyrazino[2,3-b]pyrazin-2(1H)-one], for which the “XRPD diffractogram after full adsorption/desorption cycle” value in data set [4] (DVS cycle, 25° C.) is “unchanged from the initial Form A”. The hygroscopicity result in data set [4] (DVS moisture sorption/desorption) is “not hygroscopic”. This compound also yielded a water uptake in data set [4] (DVS, 25° C., between 0 and 80% relative humidity) of less than 0.1 % w/w.

For the compound `CC(C)(O)c1ccc(-c2cnc3c(n2)N([C@H]2CC[C@H](O)CC2)C(=O)CN3)cn1` [O-Desmethyl metabolite, 1-((trans)-4-hydroxycyclohexyl)-7-(6-(2-hydroxypropan-2-yl)pyridin-3-yl)-3,4-dihydropyrazino[2,3-b]pyrazin-2(1H)-one], the “decrease in Cmax with a high fat meal” value in data set [1] (setting [6]) is given as roughly 17%. Further, the “increase in overall exposure (AUCinf) with a high fat meal” value in data set [1] (setting [6]) is on record as roughly 3%. Further, the figures for the “CL/F (L/h), geometric mean (CV %)” value in data set [1] (setting [7]) and in data set [1] (setting [8]) were 2.0 (38) L/h and 2.0 (36) L/h, respectively. Besides, the “t1/2 (h), geometric mean (CV %)” value in data set [1] (setting [8]) is listed as 14.9 (29) h. Further, the tin in data set [5] (day 1 of administration of about 30 mg of Compound A) was found to be 21 h; in data set [5] (setting [9]) it was 17 h; in data set [5] (setting [10]), 16 h. The Tax in data set [5] (setting [9]) is 3 h; in data set [5] (setting [10]), 5 h; in data set [5] (day 15 of once a day administration of about 30 mg of Compound A) it was 2 h; in data set [5] (day 15 of once a day administration of about 45 mg of Compound A), 2 h; in data set [5] (day 15 of once a day administration of about 60 mg of Compound A), 3 h; in data set [5] (setting [11]), 3 h. Also, in data set [3] (metabolite, upon administration of about 20 mg of Compound A (protocol of Section 6.5.1)), the Tax came to 3 h. Also, the concentration at 15 day in data set [5] (day 15 of once a day administration of about 7.5 mg of Compound A) was determined as 267 ng/mL; in data set [5] (day 15 of once a day administration of about 15 mg of Compound A) it was 145 ng/mL. The t1/2 in data set [5] (setting [11]) came out at 14.7 h.
